Laboratory results: patent publication US20150056269A1, “LIPOSOME COMPRISING AT LEAST ONE CHOLESTEROL DERIVATIVE” (TROPHOS, priority 2011, published 2015)
Values after ≈ are worked out from the molar mass of the structure shown. Like-named read-outs stand apart in the source and are kept apart here.

Key:
[1] = Suspensions of EPC liposomes containing the derivatives of formula (I): concentration in liposomes and particle size; assay type: physicochemical; conditions: for Particle size (nm): EPC liposomes containing the compound; for Concentration of compound in mg/mL in the liposomes: EPC liposomes, after extrusion and solvent removal
Protocol: A solution of lipids at 250 mg/mL is prepared by dissolving defined quantities of EPC and the compound of formula (I) in tert-butanol or a mixture of tert-butanol and absolute ethanol (v/v). This lipid solution is mixed at a certain temperature with aqueous buffer in order to obtain a final concentration of solvent of 15 to 17% and of product of formula (I) of […].
The large multilamellar vesicles are then extruded at a fixed temperature through 3 polycarbonate filters by 10 consecutive passes. The non encapsulated compound of formula (I) is removed on the filters.
The solvent is eliminated by filtration on membrane by washing with buffer in order to achieve a percentage of final solvent of the order of 0.4%.

[2] = Maximum solubility of the compounds of formula (I) in water and different solvents; assay type: physicochemical; conditions: for solubility: read-out: Maximum solubility (concentration)
Protocol: The maximum solubility of the compounds of formula (I) was tested in water and different solvents: […]

[3] = Liposome based on egg phospholipids
[4] = liposome based on egg phospholipids, oil or lipid

| SMILES | Particle size (nm) [1] [nm] | Concentration of compound in mg/mL in the liposomes [1] [mg/mL] | other results |
| --- | --- | --- | --- |
| CC(C)CCCC(C)C1CCC2C3CCC(=NO)C(C)(CCCO)C3CCC12C (centres unmarked) [Compound 1, 3-hydroxy-3,5-seco-4-norcholestan-5-one oxime] | 81.4 | 8.1 | Maximum solubility (concentration) ([2]; (2-hydroxypropyl)-beta-cyclodextrin, 30% PBS buffer): 700 µg/mL; Maximum solubility (concentration) ([2]; Intralipid 10): 1000 µg/mL; Maximum solubility (concentration) ([2]; Intralipid 10/Solutol HS15/ethanol 92/3/5): 5000 µg/mL; Maximum solubility (concentration) [2, 3]: 30000 µg/mL; Maximum solubility (concentration) ([2]; Soya oil): 6000 µg/mL; Maximum solubility (concentration) ([2]; Water): 1 µg/mL |
| CC(C)CCCC(C)C1CCC2C3CCC(=NO)C(C)(CCC(C)(C)O)C3CCC12C (centres unmarked) [Compound 2, 3,3-dimethyl-3-hydroxy-3,5-seco-4-norcholestan-5-one oxime] | 79.5 | 9.2 |  |
| CC(C)CCC[C@@H](C)[C@H]1CC[C@H]2[C@@H]3CCC4=CC(=NO)CC[C@]4(C)[C@H]3CC[C@]12C [Compound 3, cholest-4-en-3-one oxime] | 88.9 | 12.4 | solubility [2, 4]: 12400 µg/mL (≈ 31000 µM); solubility ([2]; water): 0.1 µg/mL (≈ 0.25 µM) |
| CC(C)=CCC[C@@H](C)[C@H]1CC[C@H]2[C@@H]3CCC4=CC(=NO)CC[C@]4(C)[C@H]3CC[C@]12C [Compound 4, cholest-4,24-dien-3-one oxime] | 80.7 | 14.5 | solubility ([2]; Intralipid 10, oil or lipid): 340 µg/mL (≈ 855 µM); solubility [2, 4]: 14500 µg/mL (≈ 36500 µM); solubility ([2]; water): 0.1 µg/mL (≈ 0.251 µM) |
| CC(C)CCC[C@@H](C)[C@H]1CC[C@H]2[C@@H]3CCC4=C(F)C(=NO)CC[C@]4(C)[C@H]3CC[C@]12C [Compound 5, 4-fluoro-cholest-4-en-3-one oxime] | 79.1 | 3.6 |  |
| CCC[C@@]1(C)C(=NO)CC[C@H]2[C@@H]3CC[C@H]([C@H](C)CCCC(C)C)[C@@]3(C)CC[C@@H]21 [Compound 6, 3,5-seco-4-norcholestan-5-one oxime] | 84.7 | 8.2 | Maximum solubility (concentration) ([2]; Intralipid 10): 400 µg/mL; Maximum solubility (concentration) [2, 3]: 8200 µg/mL; Maximum solubility (concentration) ([2]; Water): 0.1 µg/mL |
| CC(C)CCC[C@@H](C)[C@H]1CC[C@H]2[C@@H]3CCC4=CC(=O)CC[C@]4(C)[C@H]3CC[C@]12C [Compound 7, cholest-4-en-3-one] |  | 12.1 |  |
| CC(C)CCCC(C)C1CCC2C3CCC(=O)C(C)(CCCO)C3CCC12C (centres unmarked) [Compound 8, 3-hydroxy-3,5-seco-4-norcholestan-5-one] |  | 11.4 |  |
| CC(C)=CCC[C@@H](C)[C@H]1CC[C@H]2[C@@H]3CCC4=CC(=O)CC[C@]4(C)[C@H]3CC[C@]12C [Compound 9, cholest-4,24-dien-3-one] |  | 10.1 |  |
